Measurements from ChEMBL document CHEMBL1128555, “Derivatives of 5-[[1-(4'-carboxybenzyl)imidazolyl]methylidene]hydantoins as orally active angiotensin II receptor antagonists” (J Med Chem, 1995).

Tests used:
[1] = biological target: T1, Angiotensin II receptor (AT-1) type-1 (Rattus norvegicus, UniProt P29089+P25095); experiment: Binding affinity expressed as IC50 to the Angiotensin II receptor, type 1, from rat liver membrane
T1 sequence (P29089 whole entry): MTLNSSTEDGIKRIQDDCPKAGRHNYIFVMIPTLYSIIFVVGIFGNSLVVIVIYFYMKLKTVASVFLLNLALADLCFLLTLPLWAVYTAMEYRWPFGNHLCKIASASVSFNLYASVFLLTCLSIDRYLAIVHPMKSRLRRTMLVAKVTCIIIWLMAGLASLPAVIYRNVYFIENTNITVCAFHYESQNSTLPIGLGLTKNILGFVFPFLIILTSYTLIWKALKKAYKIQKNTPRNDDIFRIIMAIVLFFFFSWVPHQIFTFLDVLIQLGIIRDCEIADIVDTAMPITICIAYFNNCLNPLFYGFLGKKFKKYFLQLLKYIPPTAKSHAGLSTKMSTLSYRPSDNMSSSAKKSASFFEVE
T1 sequence (P25095 whole entry): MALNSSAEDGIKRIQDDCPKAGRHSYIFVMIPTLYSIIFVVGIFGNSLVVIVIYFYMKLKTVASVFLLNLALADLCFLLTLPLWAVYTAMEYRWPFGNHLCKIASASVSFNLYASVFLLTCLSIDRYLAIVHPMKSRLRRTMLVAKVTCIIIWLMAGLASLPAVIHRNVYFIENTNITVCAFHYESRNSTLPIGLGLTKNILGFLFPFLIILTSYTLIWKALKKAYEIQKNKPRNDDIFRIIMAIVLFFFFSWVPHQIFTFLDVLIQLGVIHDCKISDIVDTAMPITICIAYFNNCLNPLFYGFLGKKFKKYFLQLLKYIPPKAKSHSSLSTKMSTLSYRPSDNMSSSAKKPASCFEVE

[2] = biological target: Angiotensin II receptor (AT-1) type-1 (Rattus norvegicus) (UniProt P29089+P25095); experiment: Antihypertensive activity in renal hypertensive rats (RHR) at 30 mg/Kg dose after oral administration; assay type: functional, organism-based
[3] = biological target: Angiotensin II receptor type-1 (Oryctolagus cuniculus) (UniProt P34976); experiment: Inhibition of angiotensin II induced contraction in rabbit aortic ring, activity is expressed as IC50
Sequence of Angiotensin II receptor type-1 (Oryctolagus cuniculus) (P34976 whole entry, looked up): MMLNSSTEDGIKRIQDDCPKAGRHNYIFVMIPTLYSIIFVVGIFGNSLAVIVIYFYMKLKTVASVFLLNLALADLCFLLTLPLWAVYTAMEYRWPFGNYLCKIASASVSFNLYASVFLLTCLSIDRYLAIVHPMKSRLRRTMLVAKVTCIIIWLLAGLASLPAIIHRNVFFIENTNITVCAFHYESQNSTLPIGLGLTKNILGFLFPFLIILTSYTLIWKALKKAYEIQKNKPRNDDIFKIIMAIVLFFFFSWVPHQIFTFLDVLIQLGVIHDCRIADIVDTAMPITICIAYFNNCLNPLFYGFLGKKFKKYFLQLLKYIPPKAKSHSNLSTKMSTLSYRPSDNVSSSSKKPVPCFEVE

| IC50 [1] | IC50 [3] | Structure (SMILES) | Maximum blood pressure change [2] |
| --- | --- | --- | --- |
| 2.7 nM |  | CCCCc1ncc(/C=C2\C(=O)NC(=O)N2CCCC)n1Cc1ccc(-c2ccccc2-c2nn[nH]n2)cc1 |  |
| 159 nM |  | CCCCc1ncc(/C=C2/C(=O)N(CCCC)C(=O)N2Cc2ccc(C(F)(F)F)cc2)n1Cc1ccc(C(=O)OC)cc1 |  |
| 1.2 nM | 2.6 nM | CCCCc1ncc(/C=C2/C(=O)N(CCCC)C(=O)N2Cc2csc(C)n2)n1Cc1ccc(C(=O)O)cc1 | -34% |
| 14.5 nM |  | CCCCc1ncc(/C=C2/C(=O)N(CCCC)C(=O)N2CCc2cccs2)n1Cc1ccc(C(=O)OC)cc1 |  |
| 31 nM |  | CCCCc1ncc(/C=C2/C(=O)N(CCCC)C(=O)N2CCc2ccccc2)n1Cc1ccc(C(=O)OC)cc1 |  |
| 54.5 nM |  | CCCCc1ncc(/C=C2/C(=O)N(CCCC)C(=O)N2Cc2c[nH]cn2)n1Cc1ccc(C(=O)OC)cc1 |  |
| 198 nM |  | CCCCc1ncc(/C=C2/C(=O)N(CCCC)C(=O)N2Cc2c(C)noc2C)n1Cc1ccc(C(=O)OC)cc1 |  |
| 0.5 nM |  | CCCCc1ncc(/C=C2\C(=O)N(CCCC)C(=O)N2Cc2csc(N)n2)n1Cc1ccc(C(=O)O)cc1 |  |
| 4.2 nM |  | CCCCc1ncc(/C=C2/C(=O)N(CCCC)C(=O)N2Cc2ccc(C(=O)OC)s2)n1Cc1ccc(C(=O)OC)cc1 |  |
| 0.5 nM |  | CCCCc1ncc(/C=C2\C(=O)N(CCCC)C(=O)N2CCCC)n1Cc1ccc(C(=O)O)cc1 |  |
| 21.9 nM |  | CCCCc1ncc(/C=C2/C(=O)N(CCCC)C(=O)N2Cc2cc(Br)cs2)n1Cc1ccc(C(=O)OC)cc1 |  |
| 3.3 nM | 120 nM | CCCCc1ncc(/C=C2/C(=O)NC(=O)N2CCCC)n1Cc1ccc(NS(=O)(=O)C(F)(F)F)cc1 | -11% |
| 34.6 nM |  | CCCCc1ncc(/C=C2/C(=O)N(CCCC)C(=O)N2Cc2ccc(C)cc2)n1Cc1ccc(C(=O)OC)cc1 |  |
| 47.9 nM |  | CCCCc1ncc(/C=C2/C(=O)N(CCCO)C(=O)N2Cc2csc(C)n2)n1Cc1ccc(C(=O)OC)cc1 |  |
| 23.9 nM |  | CCCCc1ncc(/C=C2/C(=O)N(CCCC)C(=O)N2Cc2sccc2C)n1Cc1ccc(C(=O)OC)cc1 |  |
| 5.8 nM | 490 nM | CCCCc1ncc(/C=C2/C(=O)N(CCCC)C(=O)N2Cc2ccccn2)n1Cc1ccc(C(=O)OC)cc1 | -20% |
| 7.1 nM | 28 nM | CCCCc1ncc(/C=C2/C(=O)NC(=O)N2Cc2cccs2)n1Cc1ccc(C(=O)OC)cc1 | -19% |
| 47.8 nM |  | CCCCc1ncc(/C=C2/C(=O)N(COC)C(=O)N2Cc2csc(C)n2)n1Cc1ccc(C(=O)OC)cc1 |  |
| 12.4 nM |  | CCCCc1ncc(/C=C2/C(=O)N(CCCC)C(=O)N2Cc2ccccc2)n1Cc1ccc(C(=O)OC)cc1 |  |
| 3.4 nM | > 100 nM | CCCCc1ncc(/C=C2\C(=O)NC(=O)N2Cc2ccccc2)n1Cc1ccc(C(=O)O)cc1 |  |
| 1.4 nM | 40 nM | CCCCc1ncc(/C=C2/C(=O)NC(=O)N2CCCC)n1Cc1ccc(-c2ccccc2-c2nn[nH]n2)cc1 | 0% |

| IC50 [1] | IC50 [3] | Structure (SMILES) | Maximum blood pressure change [2] |
| --- | --- | --- | --- |
| 3.3 nM |  | CCCCc1ncc(/C=C2/C(=O)N(CCCC)C(=O)N2CC2CCCCC2)n1Cc1ccc(C(=O)OC)cc1 |  |
| 16.9 nM |  | CCCCc1ncc(/C=C2/C(=O)N(CCCC)C(=O)N2Cc2ccc([N+](=O)[O-])cc2)n1Cc1ccc(C(=O)OC)cc1 |  |
| 9.9 nM |  | CCCCc1ncc(/C=C2\C(=O)NC(=O)N2CCCC)n1Cc1ccc(-c2ccccc2C(=O)OC)cc1 |  |
| 245 nM |  | CCCCc1ncc(/C=C2/C(=O)N(CCCC)C(=O)N2Cc2c[nH]c(C)n2)n1Cc1ccc(C(=O)OC)cc1 |  |
| 17.8 nM |  | CCCCc1ncc(/C=C2/C(=O)N(CCCC)C(=O)N2Cc2ccc(Br)s2)n1Cc1ccc(C(=O)OC)cc1 |  |
| 17.6 nM | 500 nM | CCCCc1ncc(/C=C2/C(=O)N(CCCC)C(=O)N2Cc2ccc(Cl)cc2)n1Cc1ccc(C(=O)OC)cc1 | -15% |
| 8.5 nM |  | CCCCc1ncc(/C=C2/C(=O)N(CCCC)C(=O)N2Cc2cc(C)on2)n1Cc1ccc(C(=O)OC)cc1 |  |
| 1.5 nM | 21 nM | CCCCc1ncc(/C=C2/C(=O)N(CCCC)C(=O)N2Cc2cc(C)cs2)n1Cc1ccc(C(=O)O)cc1 | -16% |
| 4 nM | 35 nM | CCCCc1ncc(/C=C2/C(=O)NC(=O)N2Cc2ccccc2)n1Cc1ccc(C(=O)O)cc1 |  |
| 6.1 nM |  | CCCCCN1C(=O)N(CCCC)C(=O)/C1=C/c1cnc(CCCC)n1Cc1ccc(C(=O)OC)cc1 |  |
| 16.6 nM |  | CCCCc1ncc(/C=C2/C(=O)N(C)C(=O)N2Cc2csc(C)n2)n1Cc1ccc(C(=O)OC)cc1 |  |
| 9 nM |  | CCCCc1ncc(/C=C2/C(=O)N(CCC)C(=O)N2Cc2csc(C)n2)n1Cc1ccc(C(=O)OC)cc1 |  |
| 41.7 nM |  | CCCCc1ncc(/C=C2/C(=O)N(CCCC)C(=O)N2Cc2nn[nH]n2)n1Cc1ccc(C(=O)OC)cc1 |  |
| 6.4 nM |  | CCCCc1ncc(/C=C2/C(=O)N(CCCC)C(=O)N2CCCC(F)(F)F)n1Cc1ccc(C(=O)OC)cc1 |  |
| 11.1 nM |  | CCCCc1ncc(/C=C2/C(=O)N(CCCC)C(=O)N2Cc2ccc(C#N)cc2)n1Cc1ccc(C(=O)OC)cc1 |  |
| 4.9 nM | 74 nM | CCCCc1ncc(/C=C2\C(=O)NC(=O)N2CCC(C)C)n1Cc1ccc(C(=O)O)cc1 |  |
| 70 nM |  | CCCCc1ncc(/C=C2/C(=O)N(CCCC(F)(F)F)C(=O)N2Cc2csc(C)n2)n1Cc1ccc(C(=O)OC)cc1 |  |
| 884 nM |  | CCCCc1ncc(/C=C2/C(=O)N(CCCC)C(=O)N2C(c2ccccc2)c2ccccc2)n1Cc1ccc(C(=O)OC)cc1 |  |
| 18.5 nM |  | CCCCc1ncc(/C=C2/C(=O)N(CCCC)C(=O)N2Cc2cccc(C)c2)n1Cc1ccc(C(=O)OC)cc1 |  |
| 14.6 nM |  | CCCCc1ncc(/C=C2/C(=O)N(CCCC)C(=O)N2CCc2ccsc2)n1Cc1ccc(C(=O)OC)cc1 |  |
| 11.1 nM |  | CCCCc1ncc(/C=C2/C(=O)N(CCCC)C(=O)N2C=C(C)C)n1Cc1ccc(C(=O)OC)cc1 |  |

| IC50 [1] | IC50 [3] | Structure (SMILES) | Maximum blood pressure change [2] |
| --- | --- | --- | --- |
| 4.2 nM |  | CCCCc1ncc(/C=C2\C(=O)NC(=O)N2CCCC)n1Cc1ccc(NS(=O)(=O)C(F)(F)F)cc1 |  |
| 0.6 nM |  | CCCCc1ncc(/C=C2\C(=O)N(CCCC)C(=O)N2Cc2cccs2)n1Cc1ccc(C(=O)O)cc1 |  |
| 117 nM |  | CCCCc1ncc(/C=C2/C(=O)N(CCCC)C(=O)N2Cc2cccc(Cl)c2)n1Cc1ccc(C(=O)OC)cc1 |  |
| 25.4 nM |  | CCCCc1ncc(/C=C2/C(=O)N(CCCC)C(=O)N2Cc2csc(Br)c2)n1Cc1ccc(C(=O)OC)cc1 |  |
| 1.9 nM |  | CCCCc1ncc(/C=C2/C(=O)N(CCCC)C(=O)N2Cc2csc(C)n2)n1Cc1ccc(C2(C(=O)O)CCCC2)cc1 | -16% |
| 14.3 nM |  | CCCCc1ncc(/C=C2/C(=O)N(CCCC)C(=O)N2Cc2ccc(C(=O)OC)cc2)n1Cc1ccc(C(=O)OC)cc1 |  |
| 8 nM |  | CCCCc1ncc(/C=C2/C(=O)N(CCCC)C(=O)N2Cc2csc(C)n2)n1Cc1ccc(C2(C(=O)OC)CCCC2)cc1 |  |
| 40.2 nM |  | CCCCCCN1C(=O)N(CCCC)C(=O)/C1=C/c1cnc(CCCC)n1Cc1ccc(C(=O)OC)cc1 |  |
| 11.1 nM |  | CCCCc1ncc(/C=C2/C(=O)N(CC)C(=O)N2Cc2csc(C)n2)n1Cc1ccc(C(=O)OC)cc1 |  |
| 29.6 nM |  | CCCCc1ncc(/C=C2/C(=O)N(CCCC)C(=O)N2CCCC)n1Cc1ccc(-c2ccccc2C(=O)OC)cc1 |  |
| 4.9 nM |  | CCCCc1ncc(/C=C2/C(=O)N(CCCC)C(=O)N2Cc2ccc(O)c(O)c2)n1Cc1ccc(C(=O)OC)cc1 |  |
| 2.5 nM |  | CCCCc1ncc(/C=C2\C(=O)NC(=O)N2CCCC)n1Cc1ccc(-c2nn[nH]n2)cc1 |  |
| 260 nM |  | CCCCc1ncc(/C=C2/C(=O)N(CCCC)C(=O)N2Cc2cccc[n+]2[O-])n1Cc1ccc(C(=O)OC)cc1 |  |
| 9.8 nM |  | CCCCc1ncc(/C=C2/C(=O)N(CCCC)C(=O)N2Cc2ccc(OC)cc2)n1Cc1ccc(C(=O)OC)cc1 |  |
| 104 nM |  | CCCCc1ncc(/C=C2/C(=O)N(CCCC)C(=O)N2Cc2ccc3ccccc3c2)n1Cc1ccc(C(=O)OC)cc1 |  |
| 1.7 nM |  | CCCCc1ncc(/C=C2\C(=O)N(CCCC)C(=O)N2Cc2csc(C)n2)n1Cc1ccc(C(=O)O)cc1 |  |
| 9.6 nM |  | CCCCc1ncc(/C=C2/C(=O)N(CCSC)C(=O)N2Cc2csc(C)n2)n1Cc1ccc(C(=O)OC)cc1 |  |
| 6.6 nM | 32 nM | CCCCc1ncc(/C=C2/C(=O)NC(=O)N2CCC(C)C)n1Cc1ccc(C(=O)O)cc1 |  |
| 35.7 nM |  | CCCCc1ncc(/C=C2/C(=O)N(CO)C(=O)N2Cc2csc(C)n2)n1Cc1ccc(C(=O)OC)cc1 |  |
| 15.9 nM |  | CCCCc1ncc(/C=C2/C(=O)NC(=O)N2CCCC)n1Cc1ccc(-c2ccccc2C(=O)OC)cc1 |  |
| 4.8 nM |  | CCCCc1ncc(/C=C2/C(=O)N(CCCC)C(=O)N2Cc2ccsc2)n1Cc1ccc(C(=O)OC)cc1 | -36% |
